Source: PubChem BioAssay AID2635 (Broad Institute, 2010)
pEC50: −log10 of the molar value. Records with an inconclusive call do not appear. Activity calls are given as the source filed them. The rule behind the calls is not given here.

system: BJ-TERT RAS-dependent fibroblast cytotoxicity, fluorescence; assay: killing of RAS-driven BJ-TERT cells – cell-based, fluorescence viability readout, dose response (AID 2635)

Row | SMILES | EC50 | pEC50
1 | O=[N+]([O-])c1ccc(N=Nc2ncc[nH]2)cc1 | > 6.67 µM (inactive) | 
2 | Cc1cccc(Nc2nc(N)nc(CCl)n2)c1C | > 6.67 µM (inactive) | 
3 | CCOc1ccc(CC(=O)Nc2ccc(NC(=O)c3ccco3)cc2)cc1OCC | > 6.67 µM (inactive) | 
4 | C=C1C(=O)O[C@@H]2C[C@@H](C)[C@@H]3C=CC(=O)[C@@]3(C)[C@@H](OC(=O)CC(=O)O[C@H]3[C@@H]4C(=C)C(=O)O[C@@H]4C[C@@H](C)[C@@H]4C=CC(=O)[C@]43C)[C@H]12 |  | 6.84
5 | COc1ccc(Cc2nc(-c3ccc(NC(=O)c4cccnc4)cc3)no2)cc1 | > 6.67 µM (inactive) | 
6 | C/C(=N\Nc1ncc(Cl)cc1Cl)c1ccccn1 |  | 7.56
7 | COc1cccc(/C=C2\SC(=S)N(CCCC(=O)N(CCO)c3ccccc3)C2=O)c1 | > 6.67 µM (inactive) | 
8 | COc1ccc(C(C(=O)NC2CCCCC2)N(C(=O)CCl)c2ccc(C)cc2)cc1 (stereo not drawn) | > 6.67 µM (inactive) | 
9 | C/C(=N\Nc1ccc2nncn2n1)c1ccccn1 |  | 5.26
10 | O=C(N/N=C/c1cccnc1)c1ccc(NC(=O)C(c2ccccc2)c2ccccc2)cc1 | > 6.67 µM (inactive) | 
11 | CCc1ccc(/C=C2\SC(=S)N(CCC(=O)NCCCN3CCOCC3)C2=O)cc1 | > 6.67 µM (inactive) | 
12 | Cc1cccc(OCC(=O)Nc2ccc(C(=O)NCc3cccnc3)cc2)c1 | > 6.67 µM (inactive) | 
13 | Cc1ccccc1Nc1nc(N)nc(CCl)n1 | > 6.67 µM (inactive) | 
14 | Cc1cccc(Nc2nc(N)nc(CCl)n2)c1 | > 6.67 µM (inactive) | 
15 | O=C(NCc1cccnc1)c1ccc(NC(=O)c2cccc([N+](=O)[O-])c2)cc1 | > 6.67 µM (inactive) | 
16 | CCc1ccc(/C=C2/SC(=S)N(CCC(=O)Nc3cccnc3)C2=O)cc1 | > 6.67 µM (inactive) | 
17 | O=C(NCc1cccnc1)c1ccc(-c2cc3ccccc3oc2=O)cc1 | > 6.67 µM (inactive) | 
18 | Cc1ccc(/C=C2\SC(=S)N(CCCC(=O)N3CCOCC3)C2=O)cc1 | > 6.67 µM (inactive) | 
19 | CCN1/C(=C\C=C\C2=[N+](CC)c3ccccc3C2(C)C)C(C)(C)c2ccccc21 |  | 6.54
20 | O=C(CCN1C(=O)/C(=C\c2cccc(Br)c2)SC1=S)NCCCN1CCOCC1 | > 6.67 µM (inactive) | 

Row | SMILES | EC50 | pEC50
21 | O=C(CCl)N=c1sccn1Cc1ccccc1Cl | > 2.08 µM (inactive) | 
22 | Cc1cccnc1Nc1nc(-c2ccccn2)cs1 |  | 6.01
23 | CCc1ccc(/C=C2/SC(=S)N(CCC(=O)NCCCN3CCOCC3)C2=O)cc1 | > 6.67 µM (inactive) | 
24 | COC(=O)C[C@](O)(CCCC(C)(C)O)C(=O)O[C@@H]1C(OC)=C[C@]23CCCN2CCc2cc4c(cc2[C@H]13)OCO4 |  | 8.17
25 | Cc1ccc(C(=O)Sc2cccccc2=O)cc1 |  | 6.89
26 | O=C(COc1ccc(Cl)cc1)Nc1ccc(C(=O)NCc2cccnc2)cc1 | > 6.67 µM (inactive) | 
27 | COc1ccc(C[C@H]2NC[C@H](O)[C@H]2OC(C)=O)cc1 |  | 7.34
28 | C=CCOc1ccccc1CN(C(=O)CCl)c1ccc2c(c1)OCO2 | > 6.67 µM (inactive) | 
29 | CC(=O)Nc1ccc(NC(=O)CN(c2cccc([N+](=O)[O-])c2)S(C)(=O)=O)cc1 | > 6.67 µM (inactive) | 
30 | O=S(=O)(c1ccc(NC(=S)NCc2cccnc2)cc1)N1CCCCC1 | > 6.67 µM (inactive) | 
31 | O=S(=O)(c1ccc2c(c1)C(=NO)c1cc(S(=O)(=O)N3CCCCC3)ccc1-2)N1CCCCC1 |  | 5.59
32 | COc1ccc(S(=O)(=O)N2CCOCC2)cc1NC(=O)CCNC(=O)c1ccc(Br)cc1 | > 6.67 µM (inactive) | 
33 | CC(C)(C)c1nnc(N/N=C/c2cc(Br)ccc2O)n(N)c1=O |  | 5.72
34 | CN1CCN(C(=O)CCCN2C(=O)/C(=C/c3cccc(Br)c3)SC2=S)CC1 | > 6.67 µM (inactive) | 
35 | O=C(NCc1cccnc1)c1ccc(NC(=O)c2ccc([N+](=O)[O-])cc2)cc1 | > 6.67 µM (inactive) | 
36 | CC[C@@]1(O)C(=O)OCc2c1cc1n(c2=O)Cc2cc3c(N)cccc3nc2-1 |  | 7.28
37 | O=C(Cc1ccc([N+](=O)[O-])cc1)N/N=C/c1ccc([N+](=O)[O-])o1 | > 6.67 µM (inactive) | 
38 | CC(Oc1ccc(Cl)cc1Cl)c1nc(-c2ccc(NC(=O)c3cccnc3)cc2)no1 (stereo not drawn) | > 6.67 µM (inactive) | 
39 | COc1ccc(OC)c(Nc2nc(N)nc(CCl)n2)c1 | > 6.67 µM (inactive) | 
40 | CC1=CC(=O)C=C(C)C1=NOc1ccccc1[N+](=O)[O-] | > 6.67 µM (inactive) | 

Row | SMILES | EC50 | pEC50
41 | COc1ccc(N(C(=O)CCl)C(C(=O)NCCc2ccccc2)c2cccs2)cc1Cl (stereo not drawn) | > 2.08 µM (inactive) | 
42 | Nc1nc(CCl)nc(Nc2cccc3ccccc23)n1 | > 6.67 µM (inactive) | 
43 | O=C(NCCOc1cccnc1)c1ccc(OC2CCN(Cc3ccccn3)CC2)cc1 |  | 5.28
44 | Cc1ccc(Nc2nc(N)nc(CCl)n2)c(C)c1 | > 6.67 µM (inactive) | 
45 | COc1ccc(N(C(=O)CCl)C(C(=O)NCCc2ccccc2)c2cccs2)cc1 (stereo not drawn) |  | 5.31
46 | CC[C@@]1(O)C(=O)OCc2c1cc1n(c2=O)Cc2cc3c(CN(C)C)c(O)ccc3nc2-1 |  | 6.64
47 | COC(=O)[C@@H]1Cc2c([nH]c3ccccc23)C(C)(C)N1C(=O)CCl | > 6.67 µM (inactive) | 
48 | COc1ccc(C(C(=O)NC2CCCCC2)N(C(=O)CCl)c2cccc(Cl)c2)cc1 (stereo not drawn) | > 2.08 µM (inactive) | 
49 | CC(C)(C)c1ccc(C(=O)Nc2ccc(C(=O)NCc3cccnc3)cc2)cc1 | > 6.67 µM (inactive) | 
50 | CC[C@@]1(O)C(=O)OCc2c1cc1n(c2=O)Cc2cc3c(NC(=O)CN)cccc3nc2-1 |  | 5.23
51 | CCN(CC)c1ccc(/C=N/NC(=O)c2nnn(-c3nonc3N)c2C(C)C)c(O)c1 |  | 6.02
52 | Oc1ccccc1N=Nc1nc(-c2ccccc2)c(-c2ccccc2)[nH]1 |  | 6.43
53 | O=C(CCCCCN1C(=O)c2cccc3cccc(c23)C1=O)NCc1cccnc1 | > 6.67 µM (inactive) | 
54 | CC(C)C(=O)Nc1ccc(C(=O)NCc2cccnc2)cc1 | > 6.67 µM (inactive) | 
55 | CC[C@H]1CN2CCc3cc(OC)c(OC)cc3[C@@H]2C[C@@H]1C[C@H]1NCCc2cc(OC)c(OC)cc21 |  | 7.99
56 | COc1cccc(N(C(=O)CCl)C(C(=O)NCCc2ccccc2)c2cccs2)c1 (stereo not drawn) |  | 5.22
57 | CC[C@@]1(O)C(=O)OCc2c1cc1n(c2=O)Cc2cc3ccccc3nc2-1 |  | 7.75
58 | Cc1ccc(N(C(=O)CCl)C(C(=O)NC2CCCCC2)c2cccnc2)cc1C (stereo not drawn) |  | 6.59
